According to patent publication US20260207659A1, “COMPOSITIONS FOR USE IN THE PROPHYLACTIC TREATMENT OF HYPOCALCEMIA IN A RUMINANT ANIMAL” (VILOFOSS A/S, priority 2022, published 2026):
Values joined by “and” are separate entries in the source; they are usually repeats but may differ in a detail not shown here. Equal entries are not always repeated. Where two headings read alike, the source gives them in different places.

Experiment: In vitro phosphorus binding efficacy in rumen fluid, three phases mimicking the digestive tract of a ruminant (Thilsing et al.)
Set-up: species or system ruminant animal; Phosphate binding in comparison to control, % / P binding in comparison to control, %: concentration or dose not given beside the values
[1] = Table 1, from free phosphate, relative to Zeolite 4A
[2] = Table 1, from free phosphate, relative to untreated control
[3] = Table 2, phase 3 binding capacity, relative to Zeolite 4A
[4] = Table 2, phase 3 binding capacity, relative to control
[5] = phase 3 (after HCl and HCO3-, mimicking small intestine)
[6] = statement in words on Tables 1 and 2
[7] = supernatant of rumen fluid after addition of HCl and HCO3-, 0.06 g compound/8 ml rumen fluid

SMILES	Phosphate binding in comparison to 4A, % [1]	Phosphate binding in comparison to control, % [2]	Phosphate binding in comparison to 4A, % [3]	P binding in comparison to control, % [4]	Phosphate Binding Capacity [5]	Phosphorus binding compared to other compounds, including Zeolite 4A alone [6]	Free Phosphate [7]	Free Phosphate	P binding in comparison to control, %	Phosphate Binding Capacity	Phosphate binding in comparison to 4A, %	Phosphate binding in comparison to control, %	Phosphorus binding compared to other compounds, including Zeolite 4A alone
[Cl][Al]([Cl])[Cl] [Aluminium chloride]	45.6%	64.3%	94%	96%	88.9 mg Phosphate/gram of compound	superior	7.0 mmol	–	–	–	–	–	–
O=S(=O)([O-])[O-].[Fe+2] [Iron (II) sulphate]	–	–	–	–	–	–	–	8.2 mmol	75%	69.3 mg Phosphate/gram of compound	36.5% and 56%	58.3%	superior
O=C([O-])[O-].O=C([O-])[O-].O=C([O-])[O-].[La+3].[La+3] [Lanthanum carbonate, hydrated, reference compound]	22.6%	49.2%	72%	84%	77.7 mg Phosphate/gram of compound	superior	10.0 mmol	–	–	–	–	–	–
[Cl][La]([Cl])[Cl] [Lanthanum chloride]	51.1%	67.9%	62%	79%	72.8 mg Phosphate/gram of compound	superior	6.3 mmol	–	–	–	–	–	–
